Test results reported in ChEMBL document CHEMBL5104195, “Discovery of Orally Bioavailable SOS1 Inhibitors for Suppressing KRAS-Driven Carcinoma” (J Med Chem, 2022).

How the values were obtained:
[1] = in vitro; settings: rhesus monkey, liver microsomes
[2] = Cardiotoxicity in Patient-specific iPSC-derived cardiomyocytes assessed as decrease in spontaneous beating of myocardial cell at 3 uM by patch clamp assay; settings: human, cardiac muscle cell
[3] = dog, in vivo, po, 20 mg/kg, 24 h
[4] = Half life in Sprague-Dawley rat at 10 mg/kg, po measured upto 24 hrs by LC/MS/MS analysis; settings: in vivo
[5] = rat, in vivo, po, 10 mg/kg, 24 h
[6] = rat, in vivo, po, 10 mg/kg, 24 h; remark: listed apart in the source
[7] = Cardiotoxicity in Patient-specific iPSC-derived cardiomyocytes assessed as decrease in spontaneous beating of myocardial cell at 10 uM by patch clamp assay; settings: human, cardiac muscle cell
[8] = in vitro; settings: rat, liver microsomes
[9] = Half life in ICR mouse at 50 mg/kg, po measured up to 24 hrs by LC-MS/MS analysis; settings: in vivo
[10] = biological target: T1, Cytochrome P450 2C9 (Homo sapiens, UniProt P11712); assay: Inhibition of CYP2C9 in human liver microsomes at 10 uM using diclofenac as substrate preincubated for 10 mins followed by NADPH addition by LC/MS analysis
T1 sequence (P11712 whole entry): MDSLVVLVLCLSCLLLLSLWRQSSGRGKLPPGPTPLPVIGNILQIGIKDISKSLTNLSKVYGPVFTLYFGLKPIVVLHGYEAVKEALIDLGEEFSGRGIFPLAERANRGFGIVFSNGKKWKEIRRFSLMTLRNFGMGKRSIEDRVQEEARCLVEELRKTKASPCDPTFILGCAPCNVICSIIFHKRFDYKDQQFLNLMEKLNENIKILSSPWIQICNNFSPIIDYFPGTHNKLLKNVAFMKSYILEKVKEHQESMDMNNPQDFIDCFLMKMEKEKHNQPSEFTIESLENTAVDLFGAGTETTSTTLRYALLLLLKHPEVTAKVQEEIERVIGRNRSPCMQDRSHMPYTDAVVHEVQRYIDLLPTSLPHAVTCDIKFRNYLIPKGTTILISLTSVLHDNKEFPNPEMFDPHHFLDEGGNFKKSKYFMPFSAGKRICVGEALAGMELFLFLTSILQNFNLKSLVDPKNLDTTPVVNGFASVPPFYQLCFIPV

[11] = dog, in vivo, po, 20 mg/kg, 24 h; remark: listed apart in the source
[12] = Plasma protein binding in dog at 2 uM preincubated for 1 hr by balanced dialysis based LC-MS/MS analysis
[13] = biological target: T2, Cytochrome P450 3A4 (Homo sapiens, UniProt P08684); assay: Inhibition of CYP3A4 in human liver microsomes at 10 uM using midazolam as substrate preincubated for 10 mins followed by NADPH addition by LC/MS analysis
T2 sequence (P08684 whole entry): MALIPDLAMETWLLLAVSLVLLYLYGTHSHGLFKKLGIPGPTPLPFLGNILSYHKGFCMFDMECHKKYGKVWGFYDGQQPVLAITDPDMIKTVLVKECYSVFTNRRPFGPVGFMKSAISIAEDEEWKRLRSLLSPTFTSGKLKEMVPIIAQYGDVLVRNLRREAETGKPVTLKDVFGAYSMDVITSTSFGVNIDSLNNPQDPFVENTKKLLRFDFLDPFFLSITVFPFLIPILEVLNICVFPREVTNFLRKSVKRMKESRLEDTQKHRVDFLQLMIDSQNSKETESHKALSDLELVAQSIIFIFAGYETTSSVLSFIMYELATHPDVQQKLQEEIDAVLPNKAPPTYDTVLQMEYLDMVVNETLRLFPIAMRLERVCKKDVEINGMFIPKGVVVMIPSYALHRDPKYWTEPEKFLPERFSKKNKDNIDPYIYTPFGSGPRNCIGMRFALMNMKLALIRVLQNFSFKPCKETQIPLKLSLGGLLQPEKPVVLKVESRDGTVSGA

[14] = in vivo; settings: Sprague-Dawley, rat, po, 10 mg/kg
[15] = Cardiotoxicity in Patient-specific iPSC-derived cardiomyocytes assessed as decrease in maximum depolarization rate of action potential at 0.03 to 3 uM by patch clamp assay; settings: human, cardiac muscle cell
[16] = Toxicity in BALB/c nude mouse xenografted with human MIA PaCa-21 cells expressing KRAS G12C mutant assessed as weight loss at 50 mg/kg, po qd measured on day 21; settings: in vivo
[17] = MRT in ICR mouse at 50 mg/kg, po measured up to 24 hrs by LC-MS/MS analysis; settings: in vivo
[18] = Elimination rate constant in ICR mouse at 50 mg/kg, po measured up to 24 hrs by LC-MS/MS analysis; settings: in vivo
[19] = in vitro; settings: human, liver microsomes
[20] = in vitro; settings: mouse, liver microsomes
[21] = Half life in Sprague-Dawley rat at 2 mg/kg, iv measured upto 24 hrs by LC/MS/MS analysis; settings: in vivo
[22] = rat, in vivo, po, 10 mg/kg, 24 h; remark: listed apart in the source
[23] = rat, in vivo, iv, 2 mg/kg, 24 h
[24] = Plasma protein binding in rat at 2 uM preincubated for 1 hr by balanced dialysis based LC-MS/MS analysis
[25] = rat, in vivo, iv, 2 mg/kg, 24 h; remark: listed apart in the source
[26] = biological target: T1, Cytochrome P450 2C9; assay: Time-dependent inhibition of CYP2C9 (unknown origin) at 2 ul pre-incubated for 30 mins in presence or absence of NADPH incubated for 10 mins by LC/MS analysis
[27] = Apparent permeability across basolateral side to apical side in dog MDCKII-MDR1 cells; settings: MDCK-MDR1
[28] = in vitro; settings: dog, liver microsomes
[29] = biological target: T3, Cytochrome P450 2D6 (Homo sapiens, UniProt P10635); assay: Time-dependent inhibition of CYP2D6 (unknown origin) at 2 ul pre-incubated for 30 mins in presence or absence of NADPH incubated for 10 mins by LC/MS analysis
T3 sequence (P10635 whole entry): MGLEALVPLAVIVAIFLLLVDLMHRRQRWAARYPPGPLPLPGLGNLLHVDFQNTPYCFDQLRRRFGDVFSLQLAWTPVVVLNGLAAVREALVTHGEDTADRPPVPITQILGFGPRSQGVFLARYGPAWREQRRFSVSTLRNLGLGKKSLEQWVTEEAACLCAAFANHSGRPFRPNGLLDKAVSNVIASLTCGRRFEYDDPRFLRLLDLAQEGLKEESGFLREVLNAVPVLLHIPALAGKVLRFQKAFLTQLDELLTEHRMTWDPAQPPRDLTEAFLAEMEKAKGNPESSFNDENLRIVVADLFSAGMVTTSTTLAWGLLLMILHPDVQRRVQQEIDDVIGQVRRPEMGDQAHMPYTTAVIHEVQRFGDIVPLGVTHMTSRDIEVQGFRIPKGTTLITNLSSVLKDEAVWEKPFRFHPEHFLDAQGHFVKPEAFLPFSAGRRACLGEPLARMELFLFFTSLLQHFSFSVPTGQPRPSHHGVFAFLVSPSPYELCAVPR

[30] = biological target: T4, Cytochrome P450 2C8 (Homo sapiens, UniProt P10632); assay: Time-dependent inhibition of CYP2C8 (unknown origin) at 2 ul pre-incubated for 30 mins in presence or absence of NADPH incubated for 10 mins by LC/MS analysis
T4 sequence (P10632 whole entry): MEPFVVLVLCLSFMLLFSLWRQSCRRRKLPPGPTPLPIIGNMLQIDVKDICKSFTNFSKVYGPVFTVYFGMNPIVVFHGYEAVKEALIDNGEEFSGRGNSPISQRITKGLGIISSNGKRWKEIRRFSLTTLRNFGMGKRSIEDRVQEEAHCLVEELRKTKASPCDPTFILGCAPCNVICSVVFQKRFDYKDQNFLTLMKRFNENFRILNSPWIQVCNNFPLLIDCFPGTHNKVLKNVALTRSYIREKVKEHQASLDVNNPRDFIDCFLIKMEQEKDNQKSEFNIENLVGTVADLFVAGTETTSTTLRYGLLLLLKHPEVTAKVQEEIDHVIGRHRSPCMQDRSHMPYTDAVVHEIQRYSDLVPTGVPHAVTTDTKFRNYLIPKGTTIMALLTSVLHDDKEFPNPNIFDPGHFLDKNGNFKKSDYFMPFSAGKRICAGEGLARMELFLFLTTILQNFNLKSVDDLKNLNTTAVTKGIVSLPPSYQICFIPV

[31] = biological target: T4, Cytochrome P450 2C8; assay: Inhibition of CYP2C8 in human liver microsomes at 10 uM using amodiaquine as substrate preincubated for 10 mins followed by NADPH addition by LC/MS analysis
[32] = biological target: T5, Cytochrome P450 1A2 (Homo sapiens, UniProt P05177); assay: Inhibition of CYP1A2 in human liver microsomes at 10 uM using phenacetin as substrate preincubated for 10 mins followed by NADPH addition by LC/MS analysis
T5 sequence (P05177 whole entry): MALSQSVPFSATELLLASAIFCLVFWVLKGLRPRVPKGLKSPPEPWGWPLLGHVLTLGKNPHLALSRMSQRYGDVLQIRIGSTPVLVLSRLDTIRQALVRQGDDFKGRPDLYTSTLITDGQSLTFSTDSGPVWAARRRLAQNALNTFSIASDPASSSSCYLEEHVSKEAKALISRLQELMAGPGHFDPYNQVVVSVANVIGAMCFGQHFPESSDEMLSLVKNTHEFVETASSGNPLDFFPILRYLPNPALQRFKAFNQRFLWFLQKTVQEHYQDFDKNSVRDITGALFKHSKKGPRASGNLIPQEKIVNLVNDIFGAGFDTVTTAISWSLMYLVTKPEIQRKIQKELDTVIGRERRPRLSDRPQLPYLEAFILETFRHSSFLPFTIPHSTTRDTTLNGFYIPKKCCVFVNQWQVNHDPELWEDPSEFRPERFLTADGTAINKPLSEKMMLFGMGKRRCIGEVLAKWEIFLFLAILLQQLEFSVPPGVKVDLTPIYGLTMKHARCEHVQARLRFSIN

[33] = Apparent permeability across apical to basolateral side in dog MDCKII-MDR1 cells; settings: MDCK-MDR1
[34] = Plasma protein binding in monkey at 2 uM preincubated for 1 hr by balanced dialysis based LC-MS/MS analysis; settings: rhesus monkey
[35] = biological target: T3, Cytochrome P450 2D6; assay: Inhibition of CYP2D6 in human liver microsomes at 10 uM using dextromethorphan as substrate preincubated for 10 mins followed by NADPH addition by LC/MS analysis
[36] = rat, in vivo, iv, 2 mg/kg, 24 h; remark: listed apart in the source
[37] = Toxicity in BALB/c nude mouse xenografted with human MIA PaCa-21 cells expressing KRAS G12C mutant assessed as animal death at 50 mg/kg, po qd measured on day 21; settings: in vivo, 504 h
[38] = Half life in overnight fasted Beagle dog at 20 mg/kg, po measured upto 24 hrs by LC/MS/MS analysis; settings: in vivo
[39] = in vivo; settings: ICR, mouse, po, 50 mg/kg
[40] = Cardiotoxicity in Patient-specific iPSC-derived cardiomyocytes assessed as decrease in action potential duration by patch clamp assay; format: toxicity, cell-based; settings: human, cardiac muscle cell
[41] = biological target: T2, Cytochrome P450 3A4; assay: Time-dependent inhibition of CYP3A4 (unknown origin) at 2 ul pre-incubated for 30 mins in presence or absence of NADPH incubated for 10 mins by LC/MS analysis
[42] = in vivo; settings: ICR, mouse, po, 50 mg/kg; remark: listed apart in the source
[43] = in vivo; settings: ICR, mouse, po, 50 mg/kg; remark: listed apart in the source
[44] = Plasma protein binding in mouse at 2 uM preincubated for 1 hr by balanced dialysis based LC-MS/MS analysis
[45] = dog, in vivo, po, 20 mg/kg, 24 h; remark: listed apart in the source

Cc1nc(N[C@H](C)c2cccc(C(F)F)c2F)c2cc3c(cc2n1)OCC[C@H]1CN(CC(F)(F)F)CCN31
CLint scaled at 1 h, 1 µM [1]: 396 mL/min/kg | Activity [2]: Toxic | Cmax [3]: 232 ng/mL | t1/2 [4]: 2 h | Cmax [5]: 109 ng/mL | AUC [6]: 563 ng·h/mL | Activity [7]: Toxic | CLint scaled at 1 h, 1 µM [8]: 516 mL/min/kg | half-life at 24 h [9]: 4.13 h | IC50 [10]: 15.4 µM | Tmax [11]: 1.17 h | fraction unbound at 1 h, 2 µM [12]: 0.002 | IC50 [13]: > 100 µM | bioavailability at 24 h [14]: 18.8% | Activity [15]: Toxic | Activity [16]: Non-Toxic | MRT at 24 h [17]: 5.5 h | k el at 24 h [18]: 4.75e-05 s⁻¹ | CLint scaled at 1 h, 1 µM [19]: 442 mL/min/kg | CLint scaled at 1 h, 1 µM [20]: 436 mL/min/kg | t1/2 [21]: 5.35 h | Tmax [22]: 2.33 h | Tmax [23]: 4.8 min | fraction unbound at 1 h, 2 µM [24]: 0.001 | Cmax [25]: 518 ng/mL | IC50 [26]: 14.6 µM | Papp B→A [27]: 0.78 ×10⁻⁶ cm/s | CLint scaled at 1 h, 1 µM [28]: 12 mL/min/kg | IC50 [29]: 4.3 µM | IC50 [30]: 39.1 µM | IC50 [31]: 45.2 µM | IC50 [32]: > 100 µM | Papp A→B [33]: 0.26 ×10⁻⁶ cm/s | fraction unbound at 1 h, 2 µM [34]: 0.001 | IC50 [35]: 6.1 µM | AUC [36]: 596 ng·h/mL | Activity [37]: Non-Toxic | t1/2 [38]: 6.74 h | Cmax at 24 h [39]: 2260 ng/mL | Activity [40]: Toxic | IC50 [41]: > 100 µM | AUC at 24 h [42]: 19900 ng·h/mL | Tmax at 24 h [43]: 0.833 h | fraction unbound at 1 h, 2 µM [44]: 0.001 | AUC [45]: 1322 ng·h/mL
